Reference: US20250326815A1, “STAPLE-CONTAINING POLYPEPTIDES AND APPLICATION THEREOF” (Soter Biopharma Pte. Ltd., priority 2021, published 2025)

Tests used:
[1] = Plasma stability assay (PLS), human; assay type: in vitro ADME; conditions: pH 7.4, 37° C., read-out: PLS (human) T1/2
GLP-1R = molecular target: T1, GLP-1R (Homo sapiens, UniProt P43220); assay: In vitro agonistic activity on GLP-1R (cAMP assay); assay type: cell-based; conditions: HEK293 cell line; for Agonistic activity on GLP-1R Max Activity (%): Max Dose 20 nM
T1 construct: host or cells: HEK293
T1 sequence (P43220 24-463, species assumed): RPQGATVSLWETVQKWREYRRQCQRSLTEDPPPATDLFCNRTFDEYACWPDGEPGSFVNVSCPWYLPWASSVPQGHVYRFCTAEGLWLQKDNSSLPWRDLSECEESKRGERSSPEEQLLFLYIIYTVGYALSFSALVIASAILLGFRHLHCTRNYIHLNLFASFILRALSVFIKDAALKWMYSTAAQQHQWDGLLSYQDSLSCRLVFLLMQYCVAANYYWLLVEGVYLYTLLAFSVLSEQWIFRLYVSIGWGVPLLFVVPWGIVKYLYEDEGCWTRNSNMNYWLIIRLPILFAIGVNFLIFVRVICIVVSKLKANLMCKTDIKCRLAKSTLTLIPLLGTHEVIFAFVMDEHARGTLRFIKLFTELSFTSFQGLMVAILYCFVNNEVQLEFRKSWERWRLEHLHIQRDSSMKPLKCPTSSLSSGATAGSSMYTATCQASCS
Method: The cell lines were constructed by Shanghai WuXi AppTec.
The compounds to be assayed were serially diluted 4-fold with Bravo to obtain 10 concentrations, with a starting concentration of 30 μM.
1) 100 nL of the compound was transferred to an OptiPlate-384 plate using Echo.
2) The OptiPlate-384 plate was centrifuged at 1000 rpm for 5 seconds.
1) A GLP-1R/GIPR/GCGR cell cryopreservation tube was quickly placed in warm water at 37° C. to thaw.
2) The cell suspension was transferred to a 15 mL centrifuge tube, and gently washed with 10 ml of HBSS.
3) The centrifuge tube was centrifuged at 1000 rpm at room temperature for 1 minute.
4) The supernatant was discarded.
5) The cells at the bottom were gently dispersed and gently washed with 10 ml of HBSS. The cells were centrifuged and sedimented, and finally resuspended with the assay buffer.
6) Vi-cell was used to measure the cell density and viability.
7) The concentration of GLP-1R/GIPR/GCGR cells was diluted to 2.0*105/mL with the assay buffer.
8) […] of the diluted cell suspension was transferred to the OptiPlate-384 plate.
9) The plate was incubated at room temperature for 30 minutes.
1) 10 μL of 800 nM gradient diluted cAMP standard was added into an empty well of the OptiPlate-384 plate.
2) 10 μL of cAMP assay reagent was added.
3) The OptiPlate-384 plate was covered with a TopSeal-A film and incubated at room temperature for 60 minutes.
The TopSeal-A was peeled off and the plate was read on the EnVision.

[2] = Plasma stability assay (PLS), mouse; assay type: in vitro ADME; conditions: pH 7.4, 37° C., read-out: PLS (mouse) T1/2
Method: Stability of the assay compound in normal mouse plasma was studied.
1. Before the assay, the coagulated frozen plasma was thawed in a 37° C. water bath. The plasma was centrifuged at 4000 rpm for 5 minutes. If there were blood clots, the blood clots were removed. The pH value was adjusted to 7.4±0.1.
2. Preparation of assay compound solution: An assay compound was dissolved in DMSO to prepare a 100 μM solution.
3. 98 μL of blank control plasma was added to 2 μL of the assay compound solution (100 μM), so that the final concentration of the mixed solution reached 2 μM. The mixed solution was incubated in a 37° C. water bath.
4. 100 μL of H3PO4 solution and 800 μL of stop solution (a solution of 200 ng/ml tolbutamide and 200 ng/ml labetalol in 100% methanol) were added at each time point (0, 10, 30, 60 and 120 min), respectively, to precipitate proteins, and mixed thoroughly.
5. The sample was centrifuged at 4000 rpm for 20 min. 100 μL of supernatant from each well was taken for LC-MS/MS analysis.

[3] = Pharmacokinetic evaluation in cynomolgus monkeys; assay type: in vivo; conditions: cynomolgus monkey, plasma, 0.02 mg/kg, single SC 0.02 mpk; for half-life: read-out: Half-life T1/2 (converted); for AUC(0-t): read-out: Integral of the SC concentration AUC0-240 h; for Cmax: read-out: Maximum plasma concentration
Method: Pharmacokinetics of the compound in cynomolgus monkeys were assayed.
(§1) The pharmacokinetic characteristics of the compound in mammals after a subcutaneous injection were assayed using the standard protocol. In the assay, the candidate compound was formulated into a clear solution and given to cynomolgus monkeys by a single subcutaneous injection (SC, 0.02 mpk). The solvent of the subcutaneous injection was citrate buffer (20 mM, pH=7). Whole blood was collected, and plasma was prepared. Drug concentration was analyzed by LC-MS/MS method, and pharmacokinetic parameters were calculated using Phoenix WinNonlin software.

[4] = Pharmacokinetic evaluation in mice; assay type: in vivo; conditions: mouse, plasma, 0.048 mg/kg, C57BL/6 mice, single SC 0.048 mpk; for half-life: read-out: Half-life T1/2 (converted); for AUC(0-t): read-out: Integral of the SC concentration AUC0-72 h; for Cmax: read-out: Maximum plasma concentration
Method: Pharmacokinetics of the compound in C57BL/6 mice were assayed.
as §1, with “rodents” for “mammals”, “mice” for “cynomolgus monkeys”, “0.048” for “0.02”

STZ-NASH mouse model = assay: In vivo drug efficacy in STZ-NASH mouse model; parameters: species or system C57BL/6 mice; conditions: STZ-NASH mice, 20 nmol/kg SC every two days, 5 weeks, endpoint
Method: Drug efficacy of the assay substance in the NASH model induced by streptozotocin (STZ)+high-fat diet (HFD) in C57BL/6 mice was verified.
Modeling method: Newborn mice were subcutaneously injected with STZ (200 μg/mouse) within 48 hours after birth. After 4 weeks of breastfeeding, animals with a fasting blood glucose level of >12 mmol/L were selected and subjected to a HFD feeding for 6 consecutive weeks to finally establish the NASH model. Another 8 animals were selected without STZ injection and HFD feeding (normal control group).
Administration scheme: Administration was started after one week of HFD feeding, and the first day of administration was set as Day 1. Then, the mice were subcutaneously injected every two days for 5 consecutive weeks.
Detection at the endpoint of the assay: Pathological hematoxylin-eosin staining and picro sirius red staining were performed.

## CC(C)C[C@H](NC(=O)[C@H](CC(C)C)NC(=O)[C@H](Cc1c[nH]c2ccccc12)NC(=O)[C@H](CCC(=O)O)NC(=O)[C@@H](NC(=O)[C@H](Cc1ccccc1)NC(=O)[C@H](CCC(=O)O)NC(=O)[C@@H]1CCCCNC(=O)CN(C(=O)COCCOCCNC(=O)COCCOCCNC(=O)CC[C@H](NC(=O)CCCCCCCCCCCCCCCCCCC(=O)O)C(=O)O)CC(=O)NCCCC[C@H](NC(=O)[C@H](CCC(=O)O)NC(=O)[C@H](CC(=O)O)NC(=O)[C@H](CC(C)C)NC(=O)[C@H](Cc2ccc(O)cc2)NC(=O)[C@H](CCCCN)NC(=O)[C@H](CO)NC(=O)[C@H](Cc2ccc(O)cc2)NC(=O)[C@H](CC(=O)O)NC(=O)[C@H](CO)NC(=O)[C@@H](NC(=O)[C@H](Cc2ccccc2)NC(=O)[C@@H](NC(=O)CNC(=O)[C@H](CCC(N)=O)NC(=O)C(C)(C)NC(=O)[C@@H](N)Cc2c[nH]cn2)[C@@H](C)O)[C@@H](C)O)C(=O)N[C@@H](CCCCN)C(=O)N[C@@H](C)C(=O)N1)C(C)C)C(=O)N[C@@H](CCC(=O)O)C(=O)NCC(=O)NCC(=O)N1CCC[C@H]1C(=O)N[C@@H](CO)C(=O)N[C@@H](CO)C(=O)NCC(N)=O [WX001]
[1]
  half-life at 2 μM: > 4.82 h
GLP-1R
  EC50: 22.7 pM
  Agonistic activity on GLP-1R Max Activity (%): 122.64%
[2]
  half-life at 2 μM: > 4.82 h
[3]
  Tmax: 24 h
  half-life: 93 h
  AUC(0-t): 5.51 µM·h
  Cmax: 43 nM
[4]
  Tmax: 8 h
  half-life: 21 h
  AUC(0-t): 1.81 µM·h
  Cmax: 46 nM
STZ-NASH mouse model
  Ballooning score: 0
  Fibrosis (%): 1.21%
  Inflammation score: 1.63
  NAS score: 2.63
  Steatosis score: 1.0

## CC(C)C[C@H](NC(=O)[C@H](CC(C)C)NC(=O)[C@H](Cc1c[nH]c2ccccc12)NC(=O)[C@@H]1CCCCNC(=O)CN(C(=O)COCCOCCNC(=O)COCCOCCNC(=O)CC[C@H](NC(=O)CCCCCCCCCCCCCCCCCCC(=O)O)C(=O)O)CC(=O)NCCCC[C@H](NC(=O)[C@H](C)NC(=O)[C@H](CCCCN)NC(=O)[C@H](CCCCN)NC(=O)[C@H](CCC(=O)O)NC(=O)[C@H](CC(=O)O)NC(=O)[C@H](CC(C)C)NC(=O)[C@H](Cc2ccc(O)cc2)NC(=O)[C@H](CCCCN)NC(=O)[C@H](CO)NC(=O)[C@H](Cc2ccc(O)cc2)NC(=O)[C@H](CC(=O)O)NC(=O)[C@H](CO)NC(=O)[C@@H](NC(=O)[C@H](Cc2ccccc2)NC(=O)[C@@H](NC(=O)CNC(=O)[C@H](CCC(N)=O)NC(=O)C(C)(C)NC(=O)[C@@H](N)Cc2c[nH]cn2)[C@@H](C)O)[C@@H](C)O)C(=O)N[C@@H](CCC(=O)O)C(=O)N[C@@H](Cc2ccccc2)C(=O)N[C@@H](C(C)C)C(=O)N1)C(=O)N[C@@H](CCC(=O)O)C(=O)NCC(=O)NCC(=O)N1CCC[C@H]1C(=O)N[C@@H](CO)C(=O)N[C@@H](CO)C(=O)NCC(N)=O [WX004]
GLP-1R
  EC50: 44.6 pM
  Agonistic activity on GLP-1R Max Activity (%): 85.77%
[3]
  Tmax: 32 h
  half-life: 67 h
  AUC(0-t): 5.72 µM·h
  Cmax: 48 nM
[4]
  Tmax: 12 h
  half-life: 22 h
  AUC(0-t): 1.16 µM·h
  Cmax: 36 nM
